In brackets after ≈: the same amount, converted by molar mass.
Legend:
[1] = system: UO-31; assay: Growth inhibition of human UO-31 cells at 10 uM relative to control; type: functional; conditions: read-out: GI
[2] = system: HCC 2998; assay: Growth inhibition of human HCC 2998 cells at 10 uM relative to control; type: functional; conditions: read-out: GI
[3] = system: OVCAR-5; assay: Growth inhibition of human OVCAR-5 cells at 10 uM relative to control; type: functional; conditions: read-out: GI
[4] = system: LOX IMVI; assay: Growth inhibition of human LOX IMVI cells at 10 uM relative to control; type: functional; conditions: read-out: GI
[5] = system: NCI-H460; assay: Growth inhibition of human NCI-H460 cells at 10 uM relative to control; type: functional; conditions: read-out: GI
[6] = system: PC-3; assay: Growth inhibition of human PC-3 cells at 10 uM relative to control; type: functional; conditions: read-out: GI
[7] = system: SK-MEL-2; assay: Growth inhibition of human SK-MEL-2 cells at 10 uM relative to control; type: functional; conditions: read-out: GI
[8] = system: SF-539; assay: Growth inhibition of human SF-539 cells at 10 uM relative to control; type: functional; conditions: read-out: GI
[9] = system: Hs-578T; assay: Growth inhibition of human Hs-578T cells at 10 uM relative to control; type: functional; conditions: read-out: GI
[10] = system: MCF7; assay: Growth inhibition of human MCF7 cells at 10 uM relative to control; type: functional; conditions: read-out: GI
[11] = system: TK-10; assay: Growth inhibition of human TK-10 cells at 10 uM relative to control; type: functional; conditions: read-out: GI
[12] = system: MDA-MB-468; assay: Growth inhibition of human MDA-MB-468 cells at 10 uM relative to control; type: functional; conditions: read-out: GI
[13] = system: HOP-92; assay: Growth inhibition of human HOP-92 cells at 10 uM relative to control; type: functional; conditions: read-out: GI
[14] = system: SF-295; assay: Growth inhibition of human SF-295 cells at 10 uM relative to control; type: functional; conditions: read-out: GI
[15] = system: T47D; assay: Growth inhibition of human T47D cells at 10 uM relative to control; type: functional; conditions: read-out: GI
[16] = system: SNB-75; assay: Growth inhibition of human SNB-75 cells at 10 uM relative to control; type: functional; conditions: read-out: GI
[17] = system: NCI-H522; assay: Growth inhibition of human NCI-H522 cells at 10 uM relative to control; type: functional; conditions: read-out: GI
[18] = system: IGROV-1; assay: Growth inhibition of human IGROV-1 cells at 10 uM relative to control; type: functional; conditions: read-out: GI
[19] = system: DU-145; assay: Growth inhibition of human DU-145 cells at 10 uM relative to control; type: functional; conditions: read-out: GI
[20] = system: NCI/ADR-RES; assay: Growth inhibition of human NCI/ADR-RES cells at 10 uM relative to control; type: functional; conditions: read-out: GI
[21] = system: MDA-MB-231; assay: Growth inhibition of human MDA-MB-231 cells at 10 uM relative to control; type: functional; conditions: read-out: GI
[22] = system: NCI-H226; assay: Growth inhibition of human NCI-H226 cells at 10 uM relative to control; type: functional; conditions: read-out: GI
[23] = system: SR; assay: Growth inhibition of human SR cells at 10 uM relative to control; type: functional; conditions: read-out: GI
[24] = system: ACHN; assay: Growth inhibition of human ACHN cells at 10 uM relative to control; type: functional; conditions: read-out: GI
[25] = system: SK-MEL-28; assay: Growth inhibition of human SK-MEL-28 cells at 10 uM relative to control; type: functional; conditions: read-out: GI
[26] = system: UACC-257; assay: Growth inhibition of human UACC-257 cells at 10 uM relative to control; type: functional; conditions: read-out: GI
[27] = system: U-251; assay: Growth inhibition of human U-251 cells at 10 uM relative to control; type: functional; conditions: read-out: GI
[28] = system: CAKI-1; assay: Growth inhibition of human CAKI-1 cells at 10 uM relative to control; type: functional; conditions: read-out: GI
[29] = system: HCT-116; assay: Growth inhibition of human HCT-116 cells at 10 uM relative to control; type: functional; conditions: read-out: GI
[30] = system: OVCAR-8; assay: Growth inhibition of human OVCAR-8 cells at 10 uM relative to control; type: functional; conditions: read-out: GI
[31] = system: SF-268; assay: Growth inhibition of human SF-268 cells at 10 uM relative to control; type: functional; conditions: read-out: GI
[32] = system: BT-549; assay: Growth inhibition of human BT-549 cells at 10 uM relative to control; type: functional; conditions: read-out: GI
[33] = system: OVCAR-4; assay: Growth inhibition of human OVCAR-4 cells at 10 uM relative to control; type: functional; conditions: read-out: GI
[34] = system: UACC-62; assay: Growth inhibition of human UACC-62 cells at 10 uM relative to control; type: functional; conditions: read-out: GI
[35] = system: M14; assay: Growth inhibition of human M14 cells at 10 uM relative to control; type: functional; conditions: read-out: GI
[36] = system: HOP-62; assay: Growth inhibition of human HOP-62 cells at 10 uM relative to control; type: functional; conditions: read-out: GI
[37] = system: SNB-19; assay: Growth inhibition of human SNB-19 cells at 10 uM relative to control; type: functional; conditions: read-out: GI
[38] = system: NCI-H322M; assay: Growth inhibition of human NCI-H322M cells at 10 uM relative to control; type: functional; conditions: read-out: GI
[39] = system: HT-29; assay: Growth inhibition of human HT-29 cells at 10 uM relative to control; type: functional; conditions: read-out: GI
[40] = system: A549; assay: Growth inhibition of human A549 cells at 10 uM relative to control; type: functional; conditions: read-out: GI
[41] = system: A498; assay: Growth inhibition of human A498 cells at 10 uM relative to control; type: functional; conditions: read-out: GI
[42] = system: Malme-3M; assay: Growth inhibition of human Malme-3M cells at 10 uM relative to control; type: functional; conditions: read-out: GI
[43] = system: SK-MEL-5; assay: Growth inhibition of human SK-MEL-5 cells at 10 uM relative to control; type: functional; conditions: read-out: GI
[44] = system: SW-620; assay: Growth inhibition of human SW-620 cells at 10 uM relative to control; type: functional; conditions: read-out: GI
[45] = system: NCI-H23; assay: Growth inhibition of human NCI-H23 cells at 10 uM relative to control; type: functional; conditions: read-out: GI
[46] = system: HL-60(TB); assay: Growth inhibition of human HL-60(TB) cells at 10 uM relative to control; type: functional; conditions: read-out: GI
[47] = system: CCRF-CEM; assay: Growth inhibition of human CCRF-CEM cells at 10 uM relative to control; type: functional; conditions: read-out: GI
[48] = system: HCT-15; assay: Growth inhibition of human HCT-15 cells at 10 uM relative to control; type: functional; conditions: read-out: GI
[49] = system: SN12C; assay: Growth inhibition of human SN12C cells at 10 uM relative to control; type: functional; conditions: read-out: GI
[50] = system: 786-0; assay: Growth inhibition of human 786-0 cells at 10 uM relative to control; type: functional; conditions: read-out: GI
[51] = system: RPMI-8226; assay: Growth inhibition of human RPMI-8226 cells at 10 uM relative to control; type: functional; conditions: read-out: GI
[52] = system: KM12; assay: Growth inhibition of human KM12 cells at 10 uM relative to control; type: functional; conditions: read-out: GI
[53] = system: K562; assay: Growth inhibition of human K562 cells at 10 uM relative to control; type: functional; conditions: read-out: GI
[54] = system: RXF 393; assay: Growth inhibition of human RXF 393 cells at 10 uM relative to control; type: functional; conditions: read-out: GI
[55] = target: DNA; assay: Displacement of methyl green from DNA (unknown origin) assessed as DNA intercalation after 24 hrs by colorimetric assay; type: nucleic-acid assay
[56] = system: SK-OV-3; assay: Growth inhibition of human SK-OV-3 cells at 10 uM relative to control; type: functional; conditions: read-out: GI
[57] = system: COLO 205; assay: Growth inhibition of human COLO 205 cells at 10 uM relative to control; type: functional; conditions: read-out: GI
[58] = system: MOLT-4; assay: Growth inhibition of human MOLT-4 cells at 10 uM relative to control; type: functional; conditions: read-out: GI
[59] = system: MDA-MB-435; assay: Growth inhibition of human MDA-MB-435 cells at 10 uM relative to control; type: functional; conditions: read-out: GI

## CCOC(=O)C1=CSC2=NC(/C=C/c3cc(OC)c(OC)c(OC)c3)=CC(c3cc(OC)c(OC)c(OC)c3)N12 (centres undefined)
[1]
  inhibition of growth at 10 µM: 13.7%
[2]
  inhibition of growth at 10 µM: < 10%
[3]
  inhibition of growth at 10 µM: < 10%
[4]
  inhibition of growth at 10 µM: 29.7%
[5]
  inhibition of growth at 10 µM: < 10%
[6]
  inhibition of growth at 10 µM: 21.1%
[7]
  inhibition of growth at 10 µM: < 10%
[8]
  inhibition of growth at 10 µM: < 10%
[9]
  inhibition of growth at 10 µM: < 10%
[10]
  inhibition of growth at 10 µM: 28.9%
[11]
  inhibition of growth at 10 µM: < 10%
[12]
  inhibition of growth at 10 µM: < 10%
[13]
  inhibition of growth at 10 µM: < 10%
[14]
  inhibition of growth at 10 µM: < 10%
[15]
  inhibition of growth at 10 µM: < 10%
[16]
  inhibition of growth at 10 µM: 18.4%
[17]
  inhibition of growth at 10 µM: 47.8%
[18]
  inhibition of growth at 10 µM: < 10%
[19]
  inhibition of growth at 10 µM: < 10%
[20]
  inhibition of growth at 10 µM: < 10%
[21]
  inhibition of growth at 10 µM: 14.5%
[22]
  inhibition of growth at 10 µM: < 10%
[23]
  inhibition of growth at 10 µM: 59%
[24]
  inhibition of growth at 10 µM: < 10%
[25]
  inhibition of growth at 10 µM: < 10%
[26]
  inhibition of growth at 10 µM: 17.2%
[27]
  inhibition of growth at 10 µM: < 10%
[28]
  inhibition of growth at 10 µM: < 10%
[29]
  inhibition of growth at 10 µM: 44.4%
[30]
  inhibition of growth at 10 µM: 32%
[31]
  inhibition of growth at 10 µM: < 10%
[32]
  inhibition of growth at 10 µM: < 10%
[33]
  inhibition of growth at 10 µM: 12.5%
[34]
  inhibition of growth at 10 µM: 18%
[35]
  inhibition of growth at 10 µM: < 10%
[36]
  inhibition of growth at 10 µM: < 10%
[37]
  inhibition of growth at 10 µM: < 10%
[38]
  inhibition of growth at 10 µM: < 10%
[39]
  inhibition of growth at 10 µM: 13%
[40]
  inhibition of growth at 10 µM: < 10%
[41]
  inhibition of growth at 10 µM: < 10%
[42]
  inhibition of growth at 10 µM: < 10%
[43]
  inhibition of growth at 10 µM: 12%
[44]
  inhibition of growth at 10 µM: 13.4%
[45]
  inhibition of growth at 10 µM: < 10%
[46]
  inhibition of growth at 10 µM: < 10%
[47]
  inhibition of growth at 10 µM: 69.3%
[48]
  inhibition of growth at 10 µM: 35%
[49]
  inhibition of growth at 10 µM: < 10%
[50]
  inhibition of growth at 10 µM: < 10%
[51]
  inhibition of growth at 10 µM: 18%
[52]
  inhibition of growth at 10 µM: 22.7%
[53]
  inhibition of growth at 10 µM: 35.7%
[54]
  inhibition of growth at 10 µM: < 10%
[55]
  IC50: 43.92 µg/mL (≈ 77.2 µM)
[56]
  inhibition of growth at 10 µM: < 10%
[57]
  inhibition of growth at 10 µM: < 10%
[58]
  inhibition of growth at 10 µM: 25.1%
[59]
  inhibition of growth at 10 µM: < 10%

Source: ChEMBL document CHEMBL4665869, “New thiazolopyrimidine as anticancer agents: Synthesis, biological evaluation, DNA binding, molecular modeling and ADMET study” (Bioorg Med Chem Lett, 2020)
